Test results as given in the NIST ThermoML archive (doi:10.1021/acs.jced.5b00860).

Details: for surface tension liquid-gas: Maximal bubble pressure; for viscosity / mass density / electrical conductivity: 101.33 kPa, Liquid; for viscosity: Concentric cylinders viscometry; for mass density: Vibrating tube method; for electrical conductivity: Alternating current cell with electrodes

CCn1cc[n+](C)c1C.O=S(=O)([O-])O [1-ethyl-2,3-dimethylimidazolium hydrogen sulfate]
Details	electrical conductivity [S/m]	mass density [kg/m3]	surface tension liquid-gas [mN/m]	viscosity [mPa·s]
288.15 K	–	1261.94	50.4	375
293.15 K	–	1258.09	50.1	263.6
298.15 K	0.15	1254.43	49.8	186
303.15 K	0.193	1250.77	49.5	134.9
308.15 K	0.244	1247.08	49.3	98.41
313.15 K	0.308	1243.3	49	72.94
318.15 K	0.377	1239.59	48.7	53.72
323.15 K	0.458	1235.8	48.4	40.12
328.15 K	0.554	1232.2	48.1	30.2
333.15 K	0.665	1228.52	47.8	22.37
338.15 K	0.787	1224.82	47.5	17.96
343.15 K	0.925	1221.18	47.2	12.57

CCCCC[n+]1ccn(C)c1.O=P([O-])(O)O [1-methyl-3-pentylimidazolium dihydrogen phosphate]
Details	electrical conductivity [S/m]	mass density [kg/m3]	surface tension liquid-gas [mN/m]	viscosity [mPa·s]
288.15 K	0.164	1148.62	41.8	327.8
293.15 K	0.201	1145.42	41.5	259.1
298.15 K	0.243	1142.29	41.2	205
303.15 K	0.29	1139.09	40.9	162.6
308.15 K	0.341	1135.81	40.6	130
313.15 K	0.398	1132.55	40.3	103.3
318.15 K	0.457	1129.43	40	84.04
323.15 K	0.523	1126.27	39.7	68.45
328.15 K	0.588	1122.94	39.3	56.55
333.15 K	0.665	1119.93	39	46.91
338.15 K	0.744	1116.63	38.7	38.55
343.15 K	0.825	1113.49	38.4	31.43
